Laboratory results as given in patent publication EP2669372A1, “HPPD variants and methods of use” (Bayer CropScience AG, priority 2010, dated 2012).
pIC50: −log10 of the molar value. Where two headings read alike, the source gives them in different places.

Columns and labels:
Test in all cases: biochemical
[1] = molecular target: T1, Arabidopsis HPPD single point mutant "SEQ ID No. 35" (Arabidopsis thaliana, UniProt P93836, E252S)
T1 construct: encoding mutant HPPD polypeptide, plus containing at the 5' end a nucleic acid encoding an alanine and 6 histidine amino acids; Ala + His6 behind Met1 (N); made in house; host or cells: E. coli BL21 (DE3) (described for the wild type construct)
T1 sequence (P93836 whole entry E252S): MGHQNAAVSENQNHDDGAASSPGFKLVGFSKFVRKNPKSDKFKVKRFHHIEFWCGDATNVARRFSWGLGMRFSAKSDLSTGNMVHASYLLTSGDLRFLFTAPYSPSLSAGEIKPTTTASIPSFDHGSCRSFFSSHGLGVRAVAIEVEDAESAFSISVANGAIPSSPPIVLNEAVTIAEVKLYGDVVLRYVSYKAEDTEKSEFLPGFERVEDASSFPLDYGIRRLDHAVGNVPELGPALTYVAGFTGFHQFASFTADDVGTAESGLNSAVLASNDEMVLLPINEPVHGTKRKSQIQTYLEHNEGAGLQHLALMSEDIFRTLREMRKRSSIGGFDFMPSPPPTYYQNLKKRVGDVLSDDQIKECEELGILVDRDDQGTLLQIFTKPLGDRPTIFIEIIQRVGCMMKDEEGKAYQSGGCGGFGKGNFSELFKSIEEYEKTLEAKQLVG
Description: (§1) In this content, pI50-value means the log value of the concentration of inhibitor necessary to inhibit 50% of the enzyme activity in molar concentration.

[2] = molecular target: T2, Arabidopsis HPPD single point mutant "SEQ ID No. 40" (Arabidopsis thaliana, UniProt P93836, V269A)
T2 construct: encoding mutant HPPD polypeptide, plus containing at the 5' end a nucleic acid encoding an alanine and 6 histidine amino acids; made in house; host or cells: E. coli BL21 (DE3) (described for the wild type construct)
T2 sequence (P93836 whole entry V269A): as the sequence (P93836 whole entry E252S) above, with S252E, V269A counted along it
Description: as §1

[3] = molecular target: T3, Arabidopsis HPPD single point mutant "SEQ ID No. 42" (Arabidopsis thaliana, UniProt P93836, P280A)
T3 construct: encoding mutant HPPD polypeptide, plus containing at the 5' end a nucleic acid encoding an alanine and 6 histidine amino acids; made in house; host or cells: E. coli BL21 (DE3) (described for the wild type construct)
T3 sequence (P93836 whole entry P280A): as the sequence (P93836 whole entry E252S) above, with S252E, P280A counted along it
Description: as §1

[4] = molecular target: T4, Arabidopsis HPPD single point mutant "SEQ ID No. 44" (Arabidopsis thaliana, UniProt P93836, L368M)
T4 construct: encoding mutant HPPD polypeptide, plus containing at the 5' end a nucleic acid encoding an alanine and 6 histidine amino acids; made in house; host or cells: E. coli BL21 (DE3) (described for the wild type construct)
T4 sequence (P93836 whole entry L368M): as the sequence (P93836 whole entry E252S) above, with S252E, L368M counted along it
Description: as §1

[5] = molecular target: T5, Arabidopsis HPPD single point mutant "SEQ ID No. 46" (Arabidopsis thaliana, UniProt P93836, K421I)
T5 construct: encoding mutant HPPD polypeptide, plus containing at the 5' end a nucleic acid encoding an alanine and 6 histidine amino acids; made in house; host or cells: E. coli BL21 (DE3) (described for the wild type construct)
T5 sequence (P93836 whole entry K421I): as the sequence (P93836 whole entry E252S) above, with S252E, K421I counted along it
Description: as §1

[6] = molecular target: T6, Arabidopsis HPPD single point mutant "SEQ ID No. 48" (Arabidopsis thaliana, UniProt P93836, K421Q)
T6 construct: encoding mutant HPPD polypeptide, plus containing at the 5' end a nucleic acid encoding an alanine and 6 histidine amino acids; made in house; host or cells: E. coli BL21 (DE3) (described for the wild type construct)
T6 sequence (P93836 whole entry K421Q): as the sequence (P93836 whole entry E252S) above, with S252E, K421Q counted along it
Description: as §1

[7] = molecular target: T7, Arabidopsis HPPD single point mutant "SEQ ID No. 50" (Arabidopsis thaliana, UniProt P93836, K421V)
T7 construct: encoding mutant HPPD polypeptide, plus containing at the 5' end a nucleic acid encoding an alanine and 6 histidine amino acids; made in house; host or cells: E. coli BL21 (DE3) (described for the wild type construct)
T7 sequence (P93836 whole entry K421V): as the sequence (P93836 whole entry E252S) above, with S252E, K421V counted along it
Description: as §1

Compound: Cc1nn(C)c(O)c1C(=O)c1ccc(C(F)(F)F)cc1S(C)(=O)=O [Pyrasulfotole]
- pIC50 [1]: 4.30
- pIC50 [2]: 4.40
- pIC50 [3]: 4.40
- IC50 ([4]; read-out: pI50 (converted)): 10 µM
- pIC50 [5]: 4.30
- pIC50 [6]: 4.80
- pIC50 [7]: 4.40

Compound: Cc1ccc(S(=O)(=O)Oc2c(C(=O)c3ccc(Cl)cc3Cl)c(C)nn2C)cc1 [Pyrazolat]
- pIC50 [1]: 4.70
- pIC50 [2]: 4.40
- pIC50 [3]: 4.70
- pIC50 [4]: 4.90
- pIC50 [5]: 4.50
- pIC50 [6]: 5.00
- pIC50 [7]: 4.50
